Common to all, as to assay: DTP human tumour cell line panel, 48 h
Assay [1] has as its system A549 NSCLC.
The subject of assay [2] is ACHN renal.
Assay [3] has as its system BT-549 breast.
In assay [4] the test system is COLO 205 colon.
In assay [5] the test system is EKVX NSCLC.
For assay [6], the system named is HCT-116 colon.
The test system of assay [7] is HOP-62 NSCLC.
In assay [8] the test system is HOP-92 NSCLC.
The test system of assay [9] is MALME-3M melanoma.
Assay [10] concerns MDA-MB-231 breast.
For assay [11], the system named is MDA-N.
Assay [12] concerns RPMI-8226 leukemia.
Assay [13] deals with SF-268 CNS.
Assay [14] deals with SK-MEL-2 melanoma.
The subject of assay [15] is SK-MEL-28 melanoma.
In assay [16] the test system is SK-MEL-5 melanoma.
Assay [17] concerns SN12C renal.
The subject of assay [18] is TK-10 renal.

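48-hour exposure; five concentrations; linearly interpolated endpoints. The concentration for full growth arrest is given as TGI.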

Consider `NS(=O)(=O)c1nnc(NC(=O)c2cccc([N+](=O)[O-])c2)s1`, for which the TGI in assay [1], in assay [2], in assay [3], in assay [4], in [5] and in assay [6] was > 100 µM in each case. Further, the TGI in assay [7], in [8], in [9], in assay [10], in assay [11] and in assay [12] was > 100 µM throughout. The TGI in [13], in assay [14], in [15], in assay [16], in [17] and in assay [18] was > 100 µM in each case.
With `CCCCCCNC(=S)N/N=C(\C)c1ccccn1`, the TGI (in general, the concentration at which net growth stops) was found to be 14.6 µM in assay [1]; 10 µM in assay [2]; 16.8 µM in assay [3]; 18.2 µM in assay [4]; 47.2 µM in assay [5]; 15.9 µM in assay [6]. The TGI in [7] was 14.9 µM; in assay [8] it was 2.25 µM; in assay [9] it was 16.8 µM; in assay [10] it was 14.4 µM; in [11] it was 20.6 µM; in [12], 9.31 µM. Moreover, the TGI in assay [13] was determined as 17.8 µM; in assay [14], 22.7 µM; in assay [15], 18.5 µM; in assay [16] it was 14.7 µM; in [17], 14 µM; in assay [18], 42 µM.
With `NC(=O)NNCc1c(-c2ccccc2)no[n+]1[O-]`, the TGI in [1], in assay [2], in [3], in assay [4], in assay [5] and in assay [6] was > 100 µM each time. Moreover, the TGI in assay [7], in [8], in assay [9], in assay [10], in assay [11] and in [12] was > 100 µM throughout. For the same compound, the TGI in [13], in assay [14], in assay [15], in assay [16], in [17] and in [18] was > 100 µM in each case.
For the compound `COc1cc(C2c3[nH]c4ccccc4c3[C@@H](Nc3ccc(C#N)cc3)[C@H]3COC(=O)N23)cc(OC)c1O` (some centres not stated), the TGI in assay [1] was 0.421 µM; in [2], 0.621 µM; in assay [3], 0.796 µM; in assay [4], > 3.81 µM; in assay [5], 4.32 µM; in assay [6], 2.11 µM. Also, the TGI was 1.54 µM in assay [7]; > 4.61 µM in [8]; 1.2 µM in assay [9]; 2.14 µM in assay [10]; 1.57 µM in [11]; 0.688 µM in assay [12]. Moreover, the TGI in assay [13] amounted to 0.909 µM; in assay [14], 0.752 µM; in assay [15], 2.73 µM; in assay [16], 0.321 µM; in assay [17], 0.625 µM; in assay [18] it was 0.866 µM.
On to `CCCCOCOc1ccccc1P1(=O)COc2ccccc2OC1`, for which the TGI in assay [1], in assay [2], in assay [3], in [4], in assay [5] and in assay [6] was > 100 µM throughout. Also, the concentration for total growth inhibition (TGI) in [7], in [8], in assay [9], in assay [10], in assay [11] and in assay [12] was > 100 µM throughout. The TGI in assay [13] is > 100 µM; in assay [14] it was > 100 µM; in assay [15], > 100 µM; in assay [16], > 100 µM; in [17] it was > 100 µM; in [18], 94.1 µM.
Regarding `O=[N+]([O-])c1ccc(C2=NOC(c3ccc(Cl)cc3)N2C23CC4CC(CC(C4)C2)C3)cc1` (configuration not stated), the TGI in assay [1], in assay [2], in assay [3], in assay [4], in [5] and in [6] was > 100 µM throughout. Further, the TGI in [7], in [8], in assay [9], in assay [10], in [11] and in [12] was > 100 µM each time. Further, the TGI in assay [13], in assay [14], in assay [15], in assay [16], in assay [17] and in [18] was > 100 µM in each case.
For `COC(=O)C1=C(OC(=O)/C=C/c2ccc(Cl)cc2)C(C(=O)OC)[C@]2(O)[C@@H](C(=O)OC)[C@H]1C[C@@H](c1ccccc1)[C@@H]2C(=O)OC` (some centres not stated), the TGI in assay [1] is > 100 µM; in assay [2], > 100 µM; in assay [3], > 28.5 µM; in assay [4] it was > 22.2 µM; in assay [5], 53.2 µM; in assay [6], > 29.4 µM. Moreover, the TGI in assay [7] is > 100 µM; in [8], 7.73 µM; in assay [9] it was 20.4 µM; in assay [10], > 65.9 µM; in assay [11], > 23.1 µM; in assay [12] it was > 100 µM. In addition, the total growth inhibition concentration (TGI) in assay [13] was > 25.4 µM; in assay [14], > 27.9 µM; in [15], > 100 µM; in assay [16] it was 12.7 µM; in assay [17] it was > 29.5 µM; in assay [18], > 100 µM.
As for `CN(C)C(=O)OC1=CC2CCC(C1)N2C` (configuration not stated), the TGI in assay [1], in [2], in assay [3], in [4], in [5] and in [6] was > 100 µM throughout. Further, the TGI in assay [7], in assay [8], in assay [9], in [10], in assay [11] and in assay [12] was > 100 µM in each case. In addition, the concentration for total growth inhibition (TGI) in assay [13], in assay [14], in assay [15], in [16], in assay [17] and in [18] was > 100 µM in each case.
As to `CCCCCCSCC/C(C)=N\OC`, the TGI in assay [1], in assay [2], in [3], in assay [4], in [5] and in [6] was > 100 µM throughout. The TGI in assay [7], in [8], in assay [9], in [10], in assay [11] and in assay [12] was > 100 µM throughout. The TGI in assay [13], in [14], in [15], in assay [16], in assay [17] and in [18] was > 100 µM in each case.

(Values after PubChem BioAssay (NCI).)
